{"source": "patent US20070042040A1", "about": "“Methods and compositions using gonadotropin hormone releasing hormone” (priority 2003, published 2007)", "origin": "cited, not measured here", "details": "mouse models"}
{"smiles": "C[C@]12CC[C@H]3[C@@H](CCC4=C[C@H](O)CC[C@@H]43)[C@@H]1CC[C@@H]2O", "note": "[(3α,17β)-estr-4-ene-3,17-diol]", "values": [{"measurement": "effect on bone loss", "result": "reverse bone loss"}]}
